Assay results from publication PMC8443048 (PLoS Pathogens, 2021).

Molecular target: T1, isocitrate lyase (ICL) (Brucella abortus, UniProt Q2YQA0)
T1 construct: gene BAB1_1631
Conditions: covalent; adduct with Cys185; active site

T1 sequence (Q2YQA0 1-429): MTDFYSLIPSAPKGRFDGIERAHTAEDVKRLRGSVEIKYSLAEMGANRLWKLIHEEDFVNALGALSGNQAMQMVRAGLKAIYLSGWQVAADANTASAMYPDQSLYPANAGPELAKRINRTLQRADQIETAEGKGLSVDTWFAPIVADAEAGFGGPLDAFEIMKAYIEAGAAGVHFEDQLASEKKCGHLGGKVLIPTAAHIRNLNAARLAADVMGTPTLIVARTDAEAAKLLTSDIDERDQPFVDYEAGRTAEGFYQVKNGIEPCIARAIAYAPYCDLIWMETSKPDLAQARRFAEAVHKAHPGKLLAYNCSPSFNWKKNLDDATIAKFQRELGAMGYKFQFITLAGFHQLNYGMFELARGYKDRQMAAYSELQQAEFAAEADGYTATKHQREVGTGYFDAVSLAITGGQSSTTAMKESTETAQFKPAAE

For C=C(CC(=O)O)C(=O)O [itaconate], the “X-ray crystallography of the complex, 1.8 Å” value was “unambiguously shows a covalent adduct between itaconate and Cys185 in B. abortus isocitrate lyase”.
